Experimental data: patent publication US7378387B2, “Method of suppressing immune response by reducing intracellular content of glutathione in macrophages and monocytes” (Ajinomoto Co., Inc., priority 1997, dated 2008)

Columns and labels:
[1] = test system: spontaneous onset of insulin-dependent diabetes mellitus; assay: Onset of diabetes mellitus in NOD mice dosed at age 3 to 6 weeks (Example 23); assay type: in vivo; settings: three times per week, nine times; for Frequency (%) of onset of diabetes mellitus, on age 18 weeks: saline 50; for Frequency (%) of onset of diabetes mellitus, on age 22 weeks: saline 80
Description: NOD mice purchased from Nippon Clair, Co. were naturally mated together. Among the off spring mice, a colony of NOD mice with a high frequency of the spontaneous onset of insulin-dependent diabetes mellitus was established. Female NOD mice from the colony were used for the present experiment. […] Urine glucose was detected, using Uropaper (BM Test Glucose 5000, manufactured by Yamanouchi Pharmaceuticals, Co. Ltd.). Chemical agents were administered intraperitoneally, unless otherwise stated. […] (NAC)2 and (NAC-OMe)2 were at a single dose of 20 μg/animal; and NAC and GSHOEt were at a single dose of 2 μg/animal; and a single dose of lentinan was 0.1 mg/kg.

[2] = test system: spontaneous onset of insulin-dependent diabetes mellitus; assay: Onset of diabetes mellitus in NOD mice dosed at age 3 to 6 and 9 to 11 weeks (Example 24); assay type: in vivo; settings: doses as in the table line, 15 times in total, judged on week 22, saline 60
Text: NOD mice purchased from Nippon Clair, Co. were naturally mated together. Among the off spring mice, a colony of NOD mice with a high frequency of the spontaneous onset of insulin-dependent diabetes mellitus was established. Female NOD mice from the colony were used for the present experiment. […] Urine glucose was detected, using Uropaper (BM Test Glucose 5000, manufactured by Yamanouchi Pharmaceuticals, Co. Ltd.). The onset was judged on week 22.

[3] = test system: adjuvant-induced arthritis; assay: Adjuvant-induced arthritis (AA) in rats, joint swelling (Examples 18 and 19); assay type: in vivo, Lewis rats
Description: Adjuvant-induced arthritis was triggered in Lewis rats in a conventional manner; and the effects of chemical agents were examined in the animals. Adjuvant-induced arthritis is well known as an experimental arthritis inducible in rats [Taurog et al., Meth. Enzymol. 162, 339-355 (1988)]. […] An adjuvant is administered at 1 mg/0.1 ml per rate at a site of caudal root. The edema reaches its peak about 2 to 3 weeks after the administration of the adjuvant. The edema is triggered by inflammatory infiltration of monocytes. Swollen joints are measured with a micrometer every day; comparing the diameters of the joints prior to and after adjuvant administration and after initiation of the treatment with chemical agents with the diameters of the joints in the control group, the effects of the chemical agents were expressed as the ratio in % of joint swelling in the experimental groups to joint swelling in the control group. The effects were determined on day 15 after adjuvant administration. The chemical agents were given, starting the day next to the day of adjuvant administration, and every 3 days thereafter.
A single dose is 1 mg/kg for (NAC)2 and (NAC-OMe)2; 100 mg/kg for NAC; and 0.1 mg/kg for lentinan.
Adjuvant-induced arthritis was induced in Lewis rats in a conventional manner. In the same manner as in Example 11, the effects of chemical agents were examined in these rats. The conditions were the same as described above.

IL-12 = IL-12 production from macrophages induced through administration (Example 9, Table 1); assay type: in vivo, DBA/2 mice; settings: LPS 100 ng/ml, IFNγ 100 units/ml
Description: The amount of IL-12 was determined through bioassay using cells of human T cell strain 2D6 (J. Leukocyte Biology, vol. 61, p. 346, 1997).
2D6 cells which had been incubated in an RPMI 1640 medium containing 500 pg/ml of recombinant human IL-12, 50 μM of 2-mercaptoethanol and 10% FCS (fetal calf serum) were moved to a tube, and centrifugally washed three times with the above-mentioned medium without IL-12 and cell density was adjusted to 1×10^5/ml. The cell suspension was added in an amount of 100 μl each to a 96-well flat bottom plate containing a sample serially diluted in advance with an RPMI 1640 medium containing 50 μM of 2-mercaptoethanol and 10% FCS in an amount of 100 μl each. Subsequently, the mixture was charged into a 5% […] incubator of 37° C., and incubated for 48 hours. For final 6 hours, ^3H-TdR was pulsed (a substance adjusted to 370 kBq/ml in an RPMI 1640 medium containing 50 μM of 2-mercaptoethanol and 10% FCS was added in an amount of 50 μl each). The cells a harvested, and the radioactivity was measured using a β counter (Matrix 96, supplied by Packard).
(§1) The increase in the amounts of oxidative macrophages can easily be determined visually from the fact that almost no reaction product with monochlorobimane is observed, namely, a gray or blue image is provided, and the increase in the amounts of reductive macrophages from the fact that a red or yellow image is provided respectively. […] Meanwhile, the same examination was conducted by harvesting peritoneal exudate cells after 20 hours of the administration of 2 mg of N-acetylcystine (NAC).
(§2) Thus, the peritoneal exudate adherent cells were incubated in the following manner, and the amounts of NO and IL-12 produced in the culture supernatant were measured. With respect to the amount of IL-6, the amount of IL-6 produced spontaneously in the absence of a stimulator was measured.
(§3) Cells: The peritoneal exudate adherent cells obtained by the stimulation, namely, the macrophages were added to a 96-well microplate in an amount of 1×10^5 cells/200 μl each.
(§4) Medium: Phenol red-free RPMI 1640: 200 μl/well
(§5) LPS: Lipopolysaccharide (made by Sigma Co.) (origin: E. coli) 100 ng/ml

NO = NO production from macrophages induced through administration (Example 9, Table 1); assay type: in vivo, DBA/2 mice; settings: LPS 100 ng/ml, IFNγ 100 units/ml
Description: A stimulator was added to 1×10^5 MΦ, and the incubation was conducted at 37° C. for 2 days in a CO2 incubator. After the completion of the centrifugation, the culture supernatant was collected.
One hundred microliters of a Griess-Romijn reagent (supplied by Waco Pure Chemical Industries, Ltd.) adjusted to a concentration of 50 mg/ml in distilled water were added to 100 μl of the culture supernatant, and the reaction was conducted at room temperature for 15 minutes. After the completion of reaction, an absorbance of 540 nm was measured. NaNO2 was used as a standard.
as §1, with “This was clarified by harvesting peritoneal exudate cells 20 hours after the completion of the administration, adhering the cells to the plastic surface, then reacting the cells with 10 μM of monochlorobimane at 37° C. for 30 minutes, and analyzing the reaction product with ACAS. The” for “The”
as §2, §3, §4, §5

[4] = test system: peritoneal exudate cells (macrophages); assay: Induction of oxidative or reductive macrophages by administration, monochlorobimane/ACAS (Example 9); assay type: in vivo, DBA/2 mice; settings: for type of macrophages induced (monochlorobimane, ACAS): Day 1 and Day 2, cells harvested 20 hours later, 20 μg (NAC-OMe)2 or (NAC)2, 10 μg acetylgliotoxin, 2 mg NAC intraperitoneally, 40 μg dexamethasone subcutaneously
Description: as §1, with “This was clarified by harvesting peritoneal exudate cells 20 hours after the completion of the administration, adhering the cells to the plastic surface, then reacting the cells with 10 μM of monochlorobimane at 37° C. for 30 minutes, and analyzing the reaction product with ACAS. The” for “The”

[5] = Table 3, day 15 after adjuvant, every 3 days, single dose 1 mg/kg (NAC)2 and (NAC-OMe)2, 100 mg/kg NAC, 0.1 mg/kg lentinan

Row | SMILES | Frequency (%) of onset of diabetes mellitus, on age 18 weeks ([1]; intraperitoneal) [%] | Frequency (%) of onset of diabetes mellitus, on age 22 weeks ([1]; intraperitoneal) [%] | Frequency (%) of onset of diabetes mellitus ([2]; intraperitoneal) [%] | Ratio in % of joint swelling in experimental groups to joint swelling in control group [3, 5] [%] | Ratio in % of joint swelling in experimental groups to joint swelling in control group ([3]; Table 4, intravenous) [%] | IL-12, amount produced relative to that of control group (IL-12) [%] | NO, amount produced relative to that of control group (NO) [%] | type of macrophages induced (monochlorobimane, ACAS) [4] | Frequency (%) of onset of diabetes mellitus, on age 18 weeks ([1]; oral) [%] | Frequency (%) of onset of diabetes mellitus, on age 22 weeks ([1]; oral) [%] | Frequency (%) of onset of diabetes mellitus ([2]; oral) [%] | Ratio in % of joint swelling in experimental groups to joint swelling in control group ([3]; Table 4, oral) [%] | induction of oxidative macrophages on ACAS ([4]; intraperitoneally 20 μg/0.5 ml/h each, twice a week for three weeks, 9-11 weeks of age)
1 | CCOC(=O)CNC(=O)[C@H](CS)NC(=O)CC[C@H](N)C(=O)O [GSH-OEt, glutathione monoethyl ester] | 0 | 5 | 0 |  |  |  |  |  |  |  |  |  | 
2 | CC(=O)N[C@@H](CSSC[C@H](NC(C)=O)C(=O)O)C(=O)O [(NAC)2, N,N′-diacetylcystine] | 60 | 80 |  | 96 | 95 | 15 | 18 | Oxidative macrophages were induced |  |  |  |  | 
3 | CC(=O)N[C@@H](CS)C(=O)O [NAC, N-acetylcysteine, reference compound] | 10 | 20 |  | 132 |  | 920 | 172 | reductive macrophages were induced | 30 | 40 | 40 | 142 | 
4 | COC(=O)[C@H](CSSC[C@H](NC(C)=O)C(=O)OC)NC(C)=O [(NAC-OMe)2, N,N′-diacetylcystine dimethyl ester] | 70 | 80 | 70 | 50 | 42 | 11 | 12 | Oxidative macrophages were induced |  |  |  |  | induction of oxidative macrophages was confirmed
